According to patent US7402314B2, “In vivo activation of tumor-specific cytotoxic T cells” (The Scripps Research Institute, priority 1995, dated 2008):
Several values for one entry are separate records, joined by “and”; a condition that tells them apart may be missing. Identical values can stand only once. Like-named read-outs stand apart in the source and are kept apart here.

What was measured:
SV80 = assay: Cytotoxicity assay, killing of tumors (Table 7); type: cell-based, human
Procedure: (§1) One hundred and six (106) target cells were incubated at 37° C. with […] of sodium ^51Cr chromate for 90 minutes in the presence or absence of specific peptide. Cells were washed three times and resuspended in 5% RPMI. For the assay, 104 ^51Cr-labeled target cells were incubated with different concentrations of effector cells in a final volume of […] in U-bottomed 96-well plates. Supernatants were removed after 4-7 hrs at 37° C., and the percent specific lysis was determined by the following formula: […]
(§2) Tumor cells were preincubated for 24 hours prior to the assay in media supplemented with γ-interferon (γ-IFN, 20 ng/ml) plus tumor necrosis factor-α (TNF-α, 3 ng/ml). It is known that such pretreatment of tumor cells increases the expression of MHC I and adhesion molecules such as ICAM I on the surface of the cell thus enhancing their sensitivity to lysis by CTL. (See, e.g., Fisk, et al., Lympho. & Cylokine Res. 13: 125-131 (1994); Fady, et al., Cancer Immunol. Immunother. 37: 329-336 (1993).)

MALME-3M = assay: Cytotoxicity assay, killing of tumors (Table 7); type: cell-based, human
Procedure: as §1, §2

U2-OS = assay: Cytotoxicity assay, killing of tumors (Table 7); type: cell-based, human
Procedure: as §1, §2

SW480 = assay: Cytotoxicity assay, killing of tumors (Table 7); type: cell-based, human
Procedure: as §1, §2

JY = assay: Cytotoxicity assay, killing of tumors (Table 7); type: cell-based, human
Procedure: as §1, §2

U87G = assay: Cytotoxicity assay, killing of tumors (Table 7); type: cell-based, human
Procedure: as §1, §2

LG-2 = assay: Cytotoxicity assay, killing of tumors (Table 7); type: cell-based, human
Procedure: as §1, §2

CASKI = assay: Cytotoxicity assay, killing of tumors (Table 7); type: cell-based, human
Procedure: as §1, §2

ST486 = assay: Cytotoxicity assay, killing of tumors (Table 7); type: cell-based, human
Procedure: as §1, §2

SAOS.175 = assay: Cytotoxicity assay, killing of tumors (Table 7); type: cell-based, human
Procedure: as §1, §2

MCF-7 = assay: Cytotoxicity assay, killing of tumors (Table 7); type: cell-based, human
Procedure: as §1, §2

OVCAR-5 = assay: Cytotoxicity assay, killing of tumors (Table 7); type: cell-based, human
Procedure: as §1, §2

SKMEL-5 = assay: Cytotoxicity assay, killing of tumors (Table 7); type: cell-based, human
Procedure: as §1, §2

T98G = assay: Cytotoxicity assay, killing of tumors (Table 7); type: cell-based, human
Procedure: as §1, §2

MDA.MB435 = assay: Cytotoxicity assay, killing of tumors (Table 7); type: cell-based, human
Procedure: as §1, §2

Hep-G2 = assay: Cytotoxicity assay, killing of tumors (Table 7); type: cell-based, human
Procedure: as §1, §2

A2.1/K^b-Tg mice = assay: Peptide priming of A2.1/K^b-Tg mice, lytic activity of peptide-specific CTL; type: in vivo; parameters: Lytic Activity by Peptide-Specific CTL After Priming of A2.1/K^b-Tg Mice [Specific ^51Cr release (%)]: concentration or dose not given beside the values; conditions: for Lytic Activity by Peptide-Specific CTL After Priming of A2.1/K^b-Tg Mice [Specific ^51Cr release (%)]: E:T ratio of 60:1, peptide-pulsed T2A2/K^b targets, highest of at least three individual mice; for A2.1/K^b-restricted peptide-specific CTL response of A2.1/K^b-Tg mice (in words): mouse, in vivo
Saos-2/175 = assay: 5-hour ^51Cr release assay, endogenously synthesized p53 epitopes (Example 4); type: cell-based, human; conditions: relative to p53-deficient Saos-2
HLA-A2.1 = HLA-A2.1 (Homo sapiens, UniProt P04439, D140Y/D185E/D98H/E176V/E277Q/G131W/G231S/I119V/I121R/I166T/I218V/L300P/L318F/N151K/N90K/P208A/P217A/Q86G/Q94H/R138H/R169H/T345S); assay: Competition assay of peptide binding to HLA-A2.1 (inhibition of M1 58-66 binding, clone 12 lysis of EA2 targets)
[1] = system: peptide-pulsed T2 targets; type: cell-based, human
NCI.H1355 = assay: Cytotoxicity assay, killing of tumors (Table 7); type: cell-based, human; conditions: NCI.H1355, Lung, A2 +
Procedure: as §1, §2

BT549 = assay: Cytotoxicity assay, killing of tumors (Table 7); type: cell-based, human; conditions: BT549, Breast, A2 +
Procedure: as §1, §2

MDA.M8231 = assay: Cytotoxicity assay, killing of tumors (Table 7); type: cell-based, human; conditions: MDA.M8231, Breast, A2 +
Procedure: as §1, §2

[2] = + CYT (γ-IFN plus TNF-α, 24 hours)

## KLVGKLNWA [HIV-9K, reference compound]
SV80
  Killing of Tumors Expressing Her-2/neu (percent specific lysis): 2%
MALME-3M
  Killing of Tumors Expressing Her-2/neu (percent specific lysis): 2% and 1%
U2-OS
  Killing of Tumors Expressing Her-2/neu (percent specific lysis): 18% and 24%
SW480
  Killing of Tumors Expressing Her-2/neu (percent specific lysis): 1% and 4%
JY
  Killing of Tumors Expressing Her-2/neu (percent specific lysis): 2% and 1%
U87G
  Killing of Tumors Expressing Her-2/neu (percent specific lysis): 5% and 1%
LG-2
  Killing of Tumors Expressing Her-2/neu (percent specific lysis): 1%
CASKI
  Killing of Tumors Expressing Her-2/neu (percent specific lysis): 8% and 11%
ST486
  Killing of Tumors Expressing Her-2/neu (percent specific lysis): 1%
SAOS.175
  Killing of Tumors Expressing Her-2/neu (percent specific lysis): 18% and 11%
MCF-7
  Killing of Tumors Expressing Her-2/neu (percent specific lysis): 3% and 7%
OVCAR-5
  Killing of Tumors Expressing Her-2/neu (percent specific lysis): 10% and 12%
SKMEL-5
  Killing of Tumors Expressing Her-2/neu (percent specific lysis): 5% and 4%
T98G
  Killing of Tumors Expressing Her-2/neu (percent specific lysis): 9% and 13%
MDA.MB435
  Killing of Tumors Expressing Her-2/neu (percent specific lysis): 4% and 3%
Hep-G2
  Killing of Tumors Expressing Her-2/neu (percent specific lysis): 1% and 8%

## LLPENNVLSPL [hu-wt-p53 25-35]
A2.1/K^b-Tg mice
  Lytic Activity by Peptide-Specific CTL After Priming of A2.1/K^b-Tg Mice [Specific ^51Cr release (%)]: 47%
  A2.1/K^b-restricted peptide-specific CTL response of A2.1/K^b-Tg mice (in words): detectable
Saos-2/175
  recognition of Saos-2/175 by CTL from A2.1/K^b-Tg mice specific for the peptide (endogenous processing and presentation): did not lyse Saos-2/175
HLA-A2.1
  A2.1-binding activity / affinity for the presenting MHC class I molecule (in words): high affinity

## RMPEAAPPV [hu-wt-p53 65-73]
A2.1/K^b-Tg mice
  Lytic Activity by Peptide-Specific CTL After Priming of A2.1/K^b-Tg Mice [Specific ^51Cr release (%)]: 85%
  A2.1/K^b-restricted peptide-specific CTL response of A2.1/K^b-Tg mice (in words): detectable
Saos-2/175
  recognition of Saos-2/175 by CTL from A2.1/K^b-Tg mice specific for the peptide (endogenous processing and presentation): did not lyse Saos-2/175
HLA-A2.1
  A2.1-binding activity / affinity for the presenting MHC class I molecule (in words): high affinity

## STPPPGTRV [hu-wt-p53 149-157]
A2.1/K^b-Tg mice
  Lytic Activity by Peptide-Specific CTL After Priming of A2.1/K^b-Tg Mice [Specific ^51Cr release (%)]: 91%
  A2.1/K^b-restricted peptide-specific CTL response of A2.1/K^b-Tg mice (in words): detectable
HLA-A2.1
  A2.1-binding activity / affinity for the presenting MHC class I molecule (in words): intermediate affinity
[1]
  peptide concentration required for equivalent lysis of T2 targets by A2 vs. A2.1/K^b derived CTL (fold less): 3 fold

## VMAGVGSPYV [Peptide H7]
SV80; SV80, Fibroblast, A2 +, Her-2 −, + CYT (γ-IFN plus TNF-α, 24 hours)
  Killing of Tumors Expressing Her-2/neu (percent specific lysis): 2%
SV80; SV80, Fibroblast, A2 +, Her-2 −, no cytokines
  Killing of Tumors Expressing Her-2/neu (percent specific lysis): 2%
MALME-3M; MALME-3M, Melanoma, A2 +, Her-2 +, + CYT (γ-IFN plus TNF-α, 24 hours)
  Killing of Tumors Expressing Her-2/neu (percent specific lysis): 14%
MALME-3M; MALME-3M, Melanoma, A2 +, Her-2 +, no cytokines
  Killing of Tumors Expressing Her-2/neu (percent specific lysis): 4%
U2-OS; U2-OS, Osteosarcoma, A2 +, Her-2 +, + CYT (γ-IFN plus TNF-α, 24 hours)
  Killing of Tumors Expressing Her-2/neu (percent specific lysis): 62%
U2-OS; U2-OS, Osteosarcoma, A2 +, Her-2 +, no cytokines
  Killing of Tumors Expressing Her-2/neu (percent specific lysis): 30%
SW480; SW480, Colon, A2 +, Her-2 +, + CYT (γ-IFN plus TNF-α, 24 hours)
  Killing of Tumors Expressing Her-2/neu (percent specific lysis): 17%
SW480; SW480, Colon, A2 +, Her-2 +, no cytokines
  Killing of Tumors Expressing Her-2/neu (percent specific lysis): 2%
JY; JY, Lymphoma, A2 +, Her-2 −, + CYT (γ-IFN plus TNF-α, 24 hours)
  Killing of Tumors Expressing Her-2/neu (percent specific lysis): 2%
JY; JY, Lymphoma, A2 +, Her-2 −, no cytokines
  Killing of Tumors Expressing Her-2/neu (percent specific lysis): 4%
U87G; U87G, Glioblastoma, A2 +, Her-2 −, + CYT (γ-IFN plus TNF-α, 24 hours)
  Killing of Tumors Expressing Her-2/neu (percent specific lysis): 1%
U87G; U87G, Glioblastoma, A2 +, Her-2 −, no cytokines
  Killing of Tumors Expressing Her-2/neu (percent specific lysis): 1%
LG-2; LG-2, EBV-trans., A2 +, Her-2 −, + CYT (γ-IFN plus TNF-α, 24 hours)
  Killing of Tumors Expressing Her-2/neu (percent specific lysis): 3%
LG-2; LG-2, EBV-trans., A2 +, Her-2 −, no cytokines
  Killing of Tumors Expressing Her-2/neu (percent specific lysis): 1%
CASKI; CASKI, Cervix, A2 +, Her-2 +, + CYT (γ-IFN plus TNF-α, 24 hours)
  Killing of Tumors Expressing Her-2/neu (percent specific lysis): 20%
CASKI; CASKI, Cervix, A2 +, Her-2 +, no cytokines
  Killing of Tumors Expressing Her-2/neu (percent specific lysis): 9%
NCI.H1355; [2]
  Killing of Tumors Expressing Her-2/neu (percent specific lysis): 62%
NCI.H1355; no cytokines
  Killing of Tumors Expressing Her-2/neu (percent specific lysis): 13%
ST486; ST486, Lymphoma, A2 +, Her-2 −, + CYT (γ-IFN plus TNF-α, 24 hours)
  Killing of Tumors Expressing Her-2/neu (percent specific lysis): 8%
ST486; ST486, Lymphoma, A2 +, Her-2 −, no cytokines
  Killing of Tumors Expressing Her-2/neu (percent specific lysis): 5%
SAOS.175; SAOS.175, Osteosarcoma, A2 +, Her-2 +, + CYT (γ-IFN plus TNF-α, 24 hours)
  Killing of Tumors Expressing Her-2/neu (percent specific lysis): 35%
SAOS.175; SAOS.175, Osteosarcoma, A2 +, Her-2 +, no cytokines
  Killing of Tumors Expressing Her-2/neu (percent specific lysis): 27%
MCF-7; MCF-7, Breast, A2 +, Her-2 +, + CYT (γ-IFN plus TNF-α, 24 hours)
  Killing of Tumors Expressing Her-2/neu (percent specific lysis): 40%
MCF-7; MCF-7, Breast, A2 +, Her-2 +, no cytokines
  Killing of Tumors Expressing Her-2/neu (percent specific lysis): 7%
BT549; [2]
  Killing of Tumors Expressing Her-2/neu (percent specific lysis): 36%
BT549; no cytokines
  Killing of Tumors Expressing Her-2/neu (percent specific lysis): 2%
OVCAR-5; OVCAR-5, Ovarian, A2 +, Her-2 +, + CYT (γ-IFN plus TNF-α, 24 hours)
  Killing of Tumors Expressing Her-2/neu (percent specific lysis): 23%
OVCAR-5; OVCAR-5, Ovarian, A2 +, Her-2 +, no cytokines
  Killing of Tumors Expressing Her-2/neu (percent specific lysis): 13%
SKMEL-5; SKMEL-5, Melanoma, A2 +, Her-2 +, + CYT (γ-IFN plus TNF-α, 24 hours)
  Killing of Tumors Expressing Her-2/neu (percent specific lysis): 40%
SKMEL-5; SKMEL-5, Melanoma, A2 +, Her-2 +, no cytokines
  Killing of Tumors Expressing Her-2/neu (percent specific lysis): 16%
T98G; T98G, Glioblastoma, A2 +, Her-2 +, + CYT (γ-IFN plus TNF-α, 24 hours)
  Killing of Tumors Expressing Her-2/neu (percent specific lysis): 93%
T98G; T98G, Glioblastoma, A2 +, Her-2 +, no cytokines
  Killing of Tumors Expressing Her-2/neu (percent specific lysis): 29%
MDA.M8231; [2]
  Killing of Tumors Expressing Her-2/neu (percent specific lysis): 89%
MDA.M8231; no cytokines
  Killing of Tumors Expressing Her-2/neu (percent specific lysis): 26%
MDA.MB435; MDA.MB435, Breast, A2 −, Her-2 +, + CYT (γ-IFN plus TNF-α, 24 hours)
  Killing of Tumors Expressing Her-2/neu (percent specific lysis): 1%
MDA.MB435; MDA.MB435, Breast, A2 −, Her-2 +, no cytokines
  Killing of Tumors Expressing Her-2/neu (percent specific lysis): 1%
Hep-G2; Hep-G2, Hepatoma, A2 +, Her-2 +, + CYT (γ-IFN plus TNF-α, 24 hours)
  Killing of Tumors Expressing Her-2/neu (percent specific lysis): 29%
Hep-G2; Hep-G2, Hepatoma, A2 +, Her-2 +, no cytokines
  Killing of Tumors Expressing Her-2/neu (percent specific lysis): 4%
